The values that follow come from patent EP1389461A1, “Pyrimidones with antiviral properties” (Axxima Pharmaceuticals Aktiengesellschaft, priority 2002, dated 2004).

This assay relates to HCMV. Briefly: HCMV replication in vitro. The format is cell-based, human cytomegalovirus (HCMV). The conditions noted are these: Human betaherpesvirus 5.

Consider `Nc1nc(O)c2ncn(COC(CO)CO)c2n1` [ganciclovir], for which the half-maximal inhibitory concentration (IC50) is 3 to 4 µM.
